Data published in patent publication US20240091328A1, “FORMULATIONS AND METHODS FOR MHC-I RESTRICTED EPITOPE IMMUNIZATION” (The Research Foundation for The State University of New York, priority 2021, published 2024).
Counter-ions that a name gives are not always drawn.

What was measured:
RENCA cells [1] = test: Prophylactic vaccine tumor model, subcutaneous RENCA challenge; type: in vivo, BALB/c mice; settings: single peptide with CoPoP liposome, days 0 and 7, RENCA day 14
Experimental: Multivalent vaccine was prepared by first incubate all 20 peptides with CPQ and 2HPQ liposome for a hour at room temperature with a mass ratio of 1:4. The binding percentage of peptides was assessed by peptide filtration assay. […] There was no significant change of sizes of liposome before or after binding, which were around 100 nm (FIG. 19B). The polydispersity index of liposomes is smaller than 0.25 (FIG. 19C). Mice were vaccinated with CPQ/peptides on day0 & 7, the injection dose is 50 ng per peptide and lug total peptide per mouse. Mice were then challenged with RENCA cells subcutaneously on day14.
To confirm which peptide was responsible to the anti-tumor efficacy of the vaccine, we admixed single peptide with CoPoP liposome as a vaccine to inject BALB/c mice. These 20 vaccines were injected to 20 groups of BALB/c mice on day 0 & 7, RENCA cells were inoculated on day14.
(§1) Tumor challenge: For the prophylactic vaccine tumor model, mice were vaccinated on day 0 and 7, and challenged on day 14. For testing the long-term protection of vaccine, mice were challenged on day 80. […] Tumor growth was monitored three times a week and tumor sizes were calculated by equation: Tumor volume=length×width^2/2. […] Tumor nodules were counted manually and lung weights were measured.

[2] = tested on: IFN-γ and TNF-α producing CD8^+ T cells; test: Intracellular IFN-γ / TNF-α staining of splenocytes after antigen re-stimulation; type: in vivo, BALB/c mice; settings: mice vaccinated with CPQ and 20 RENCA peptides
Experimental: For Intracellular staining: 100 μL of 1×10^6 splenocytes were seeded in a flat bottom 96 wells plate and stimulated with 10 μg/mL antigen for 15-18 hours in the cell culture incubator. Then Brefeldin A was added to the plates with a dilution of 1000× for another 5 hours. Cells were transferred to a round bottom 96 wells plate and centrifuged at 1350 rpm for 3 mins, the cell pellets were washed twice and stained with 500× live/dead fixable dye, 200× diluted APC anti-mouse CD8, 200× diluted FITC anti-mouse CD4, 200× diluted PE/Cy7 anti-mouse CD62L and 200× diluted PerCP/Cy5.5 […] 25 min at 4° C. with shaking. Cells were washed twice and fixed and permeabilized by fixation/permeabilization buffer for 20 min at 4° C. Cells were washed twice with perm wash buffer and stained with 200× diluted pacific blue anti-mouse IFN-γ and 200× diluted PE anti-mouse TNF-α for 30 min on ice. Cells were washed twice by perm/wash buffer for flow cytometry.

RENCA cells [3] = test: Cell lysis by splenocyte effector cells, LDH release, RENCA targets; type: cell-based, mouse; settings: single peptide vaccine
Experimental: FIG. 20. […] BALB/c mice were immunized with CPQ/peptide vaccine on day 0 & 7, then inoculated with RENCA cells subcutaneously on day 14. (A) Tumor sizes of mice vaccinated with CPQ admixed with indicated peptide 18 days post tumor inoculation. Splenocytes were prepared 18 days post tumor inoculation and cultured in vitro for 5 days then stimulated with antigens and served as Effector cells (E), tumor cells were target cells (T). Effector cells were incubated with target cells for 5 hours, then specific lysis was analyzed by the nonradioactive LDH release assay by following the manufacturer's instructions. Percent cell lysis of RENCA cells (B) and percent cell lysis of irrelevant TC-1 cells (C). Error bars show mean+/−std. dev. for n=5 independent experiments.
For Cytotoxic T lymphocyte (CTL) cytotoxicity assay, isolated splenocytes were cultured in the cell culture medium and stimulated by mouse IL-2 (Pepro tech; catalog: 212-12; 10 IU/mL) and antigens (10 μg/mL) for 5 days to use as the effector cells. 5000 CT26 cells were seeded in a 96 wells plate and pulsed with 10 μg/mL antigens for 1 hour, then splenocytes were added to the plate at different E:T ratios for 5 hours. The cytotoxicity of splenocytes on tumor cells was assessed by lactate dehydrogenase (LDH) release using Non-Radioactive Cytotoxicity Assay Kit (Promega; catalog: G1780) according to manufacturer instructions.

[4] = tested on: RAW264.7 murine macrophage cells; test: In vitro cell uptake of A5-HiLyte488, macrophages; type: cell-based, mouse; settings: cells pre-incubated with inhibitor 10 μg/mL for an hour, CPQ/A5
Experimental: For in vitro cell uptake studies, RAW264.7 cells (2.5×10^5 per well) and BMDCs (2.5×10^5 per well) were cultured in a 24-well plates overnight, then treated with CPQ/A5-HiLyte488, 2HPQ/A5-HiLyte488 and PBS/A5-HiLyte488 (peptide concentration of 1 μg/mL) for 10 min, 30 min or an hour. For phagocytosis and endocytosis inhibitor study, cells were first pre-incubated with cytochalasin B (10 μg/ml) or chlorpromazine (10 μg/mL) for an hour before the cell uptake study. Cells were washed and lysed with 0.1% Triton X-100 and 10 mM dithiothreitol (DTT). The fluorescence signals were measured before and after adding DTT. Cellular A5-HiLyte488 uptakes were calculated by preparing an A5-HiLyte488 standard curve.

CT26 cells = test: Experimental lung metastasis tumor model, CT26; type: in vivo, BALB/c mice; settings: 1000 ng (total) peptides with CPQ, 1 and 8 days after i.v. CT26
Experimental: Tumor challenge: For the prophylactic vaccine tumor model, mice were vaccinated on day 0 and 7, and challenged on day 14. For testing the long-term protection of vaccine, mice were challenged on day 80. For the therapeutic vaccine tumor model, mice were inoculated with tumor cells subcutaneously on day 0, and then vaccinated with indicated vaccine on days 5 and 12. Tumor growth was monitored three times a week and tumor sizes were calculated by equation: Tumor volume=length×width^2/2. Animals were euthanized when the tumor sizes reached 1 cm in diameter or when animals developed an ulceration. For the experimental lung metastasis tumor model, animals were injected intravenously via tail vein with tumor cells on day 0, then were left untreated or treated with intramuscular injection with the indicated vaccines on day 2 and 9 for the A5 vaccine studies or day 1 and 8 for the RragcL385P, Tmem5S71N or EML5G44R peptide screening studies. Lungs were excised and stained with Bouin's solution (Sigma Catalog: HT10132) on day 18 for mice injected with CT26 cells and on day 16 for mice injected with 4T1 cells. Tumor nodules were counted manually and lung weights were measured.

[5] = tested on: IFN-γ producing CD8^+ T cells; test: Intracellular IFN-γ in CD8+ T cells of re-stimulated PBMCs; type: in vivo, C57BL/6 mice; settings: multivalent E6/E7 vaccine, 100 ng each peptide
Experimental: The E6 and E7 genes of TC-1 cells were sequenced from extracted DNA using Sanger sequencing. Six predicted H-2K^b- and H-2D^b-restricted epitopes within the top percentile of MHC-I binders were identified using a neural network simulation algorithm. […] These 6 peptides were combined with CPQ to form a single multivalent vaccine for mice and the immunogenicity of each peptide were assessed by Interferon gamma (IFN-γ production after individual peptide stimulation of collected peripheral blood mononuclear cells (PBMCs). Mice were then challenged with TC-1 cells subcutaneously to assess the tumor protection of the vaccine (FIG. 21A).
Collected PBMCs were re-stimulated with the epitope candidates that comprised the multivalent vaccine after which CD8^+ T cells were assessed for intracellular IFN-γ production, indicating the induction of Ag-specific CD8^+ T cells. […] When PBMCs from mice injected with the non-particle forming 2HPQ/peptides were re-stimulated with the peptides, none induced IFN-γ producing CD8^+ T cells (FIG. 21E).

TC-1 cells = test: Prophylactic vaccine tumor model, subcutaneous TC-1 challenge; type: in vivo, C57BL/6 mice; settings: days 0 and 7, challenge day 14
Excerpt: To determine immunogenicity, C57BL/6 mice were then vaccinated intramuscularly with the multivalent vaccine on days 0 & 7, and peripheral blood mononuclear cells (PBMCs) were collected and mice challenged with TC-1 tumor cells on day 14. […] Thus, the presentation of the peptides in the form of a particle, even with identical amounts of QS-21 and MPLA, appeared to be important for inducing memory CD8^+ T cells.
Next, to determine which of the peptide epitopes provided anti-tumor activity, peptides were admixed individually with CPQ or 2HIPQ liposomes (FIG. 22A). Individually, all of the peptides effectively bound to CPQ liposomes, but not to 2HIPQ liposomes lacking cobalt (FIG. 22B). Liposome size remained ˜100 nm after binding with E6 and E7 peptides (FIG. 22C). Next, mice were vaccinated with the peptides admixed with CPQ on days 0 & 7 at a peptide dose of 500 ng. Each mouse was then challenged with TC-1 cells on day 14. […]
as §1, with “14.” for “14. For testing the long-term protection of vaccine, mice were challenged on day 80.”

IFN-γ = test: In vivo peptide micro-library screening, IFN-γ ELISA of re-stimulated splenocytes relative to A5; design: species or system mice; settings: rank among 100 micro-library peptides; IFN-γ on re-stimulation relative to A5; 5 peptides plus A5 with CPQ
Experimental: Mice were immunized with 5 library peptides at a time, along with the A5 peptide, with all peptides combined and admixed with CPQ. After two intramuscular injections, splenocytes were collected, and then re-stimulated with each of the synthetic micro-library peptides, individually. Production of IFN-γ was measured and peptide immunogenicity was determined relative to the A5 peptide, which served as in internal control that could induce strong Ag-specific CD8^+ T cell responses.
For Ag screening, multivalent vaccine composed of peptide with the same MHC-I haplotypes (H-2L^d, H-2D^d, or H-2K^d) and the internal A5 peptide were admixed with CPQ. After immunization, only ˜10% of MHC-I binding peptides induced T cells in splenocytes that produced IFN-γ with peptide re-stimulation, and none were nearly as effective as A5 (FIG. 16B). The most highly immunogenic peptides only produced about a quarter of the level of IFN-γ relative to A5. […] It is also feasible that immunization with higher antigen doses of single individual peptides could have induced stronger immunogenic responses, although this would decrease the in vivo peptide micro-library screening throughput.
IFN-γ ELISA: 2.5×10^5 splenocytes were seeded in a 96 wells plate and stimulated with 10 μg/mL antigens for 72 hr. 50 μL of supernatant was collected from each well and subjected to Interferon gamma ELISA (Thermofisher; catalog: BMS606TEN) according to manufacturer protocol.

3His-AYTTQREEL (HHHAYTTQREEL; N-terminal 3His tag; Renca_2)
Tumor growth, single peptide vaccine (RENCA cells [1]): inhibited tumor growth | IFN-γ producing CD8^+ T cells in the spleen after stimulation with individual peptide [2]: around 2% | Lysis of RENCA cells by T cells of vaccinated mice (RENCA cells [3]): induced functional T cells that specific targets to RENCA cells

3His-GYHESGHAI (HHHGYHESGHAI; N-terminal 3His tag; Renca_8)
IFN-γ producing CD8^+ T cells in the spleen after stimulation with individual peptide [2]: ~5%

CN(C)CCCN1c2ccccc2Sc2ccc(Cl)cc21 [chlorpromazine, Chlorpromazine hydrochloride]
A5 peptide uptake by macrophages in the presence of inhibitor [4]: significantly less

C=C1[C@@H](C)[C@H]2[C@H](Cc3ccccc3)NC(=O)[C@]23OC(=O)/C=C/[C@H](O)CCC[C@@H](C)C/C=C/[C@H]3[C@@H]1O [cytochalasin B]
A5 peptide uptake by macrophages in the presence of inhibitor [4]: significantly less

Eml5G44R: 9-mer neoantigen peptide; tagged forms CT71 and 3his-CT71 (VYFVAGVRV)
Lung nodules (CT26 cells): no significant difference

H3-RAHYNIVTF (HHHRAHYNIVTF; H3 N-terminal flank; E749-57)
IFN-γ producing cells of CD8+ T cells over background after peptide re-stimulation of PBMCs [5]: higher percentage | Tumor-free survival maintained (TC-1 cells; 500 ng peptide with CPQ): at least 60 days | Tumor growth after TC-1 challenge, single peptide with CPQ (TC-1 cells; 500 ng peptide): inhibited tumor growth

H3-STHVDIRTL (HHHSTHVDIRTL; H3 N-terminal flank; E771-79)
IFN-γ producing cells of CD8+ T cells over background after peptide re-stimulation of PBMCs [5]: higher percentage

H3-TLHEYMLDL (HHHTLHEYMLDL; H3 N-terminal flank; E76-14)
IFN-γ producing cells of CD8+ T cells over background after peptide re-stimulation of PBMCs [5]: higher percentage

H6-WGAWLSGAL-ERR (HHHHHHWGAWLSGALERR; CT42)
Experimental rank (IFN-γ): 28

H6-YGKGVNFYL-ERR (HHHHHHYGKGVNFYLERR; CT50)
Experimental rank (IFN-γ): 68

H6-YVYEIYMTF-ERR (HHHHHHYVYEIYMTFERR; CT98)
Experimental rank (IFN-γ): 9

H6-YYESDEFTV-ERR (HHHHHHYYESDEFTVERR; CT65)
Experimental rank (IFN-γ): 17

H6-YYMRDVIAI-ERR (HHHHHHYYMRDVIAIERR; CT33)
Experimental rank (IFN-γ): 96

Tmem5S71N: 9-mer neoantigen peptide; tagged forms CT96 and 3his-CT96 (VVEANWTML) (HHHVVEANWTML; N-terminal 3His tag; 3his-CT96/Tmem5S71N)
Lung nodules (CT26 cells): no significant difference
